In PubChem BioAssay AID2060363 (Molecular Pharmacology Branch, DTP, NCI, 2025):
Several values for one entry are separate records, joined by “and”; a condition that tells them apart may be missing. Equal values may be shown once.

Tested on: 156681-154-R-J1-PDC tumor spheroids, viability % test/control
Experiment: Anticancer human tumor 156681-154-R-J1-PDC patient-derived melanoma cell line growth inhibition [TAK]
Conditions: spheroids with HUVEC and MSC; for viability, T/C: stronger effect = lower value
Summary of the method: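 Drug combinations, each paired with TAK-243 or ipatasertib, were tested on multi-cell spheroids of 60% malignant cells, 25% HUVEC and 15% hMSC. Top concentrations were at or near the clinical Cmax (10 microM if undetermined), decreasing by half-log; viability is given as % test/control.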

[1] = curve of first compound, second compound 0.3 µM
[2] = curve of first compound, second compound 0.949 µM
[3] = curve of first compound, second compound 3 µM
[4] = curve of first compound, second compound 9.49 µM
[5] = curve of first compound, second compound 30 µM
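Also: spheroids exposed to compounds for 7 days before the endpoint.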

In the case of `Cn1cnc2c(F)c(Nc3ccc(Br)cc3Cl)c(C(=O)NOCCO)cc21` + CC(C)NCC(C(=O)N1CCN(c2ncnc3c2C(C)CC3O)CC1)c1ccc(Cl)cc1, the IC50 [1] is reported as 602 nM, the IC50 [2] is reported as 493 nM and the IC50 [3] is reported as 331 nM. For the same compound, the IC50 [4] was < 9.49 nM, the IC50 [5] was < 9.49 nM and the viability, T/C (second compound 0.3 µM, first compound 0.00949 µM) was 96.6%. It also gave a viability, T/C (second compound 0.3 µM, first compound 0.03 µM) of 97%, a viability, T/C (second compound 0.3 µM, first compound 0.0949 µM) of 83.8% and a viability, T/C (second compound 0.3 µM, first compound 0.3 µM) of 81.2%. For the same compound, the viability, T/C (second compound 0.3 µM, first compound 0.949 µM) was 30%, the viability, T/C (second compound 0.3 µM, first compound 3 µM) was 9.69% and the viability, T/C (second compound 0.949 µM, first compound 0.00949 µM) was 81.1%. The viability, T/C (second compound 0.949 µM, first compound 0.03 µM) was 78.3%, the viability, T/C (second compound 0.949 µM, first compound 0.0949 µM) was 86.2% and the viability, T/C (second compound 0.949 µM, first compound 0.3 µM) was 71.3%. For the same compound, the viability, T/C (second compound 0.949 µM, first compound 0.949 µM) was 21.4%, the viability, T/C (second compound 0.949 µM, first compound 3 µM) was 7.25% and the viability, T/C (second compound 3 µM, first compound 0.00949 µM) was 69.1%. The viability, T/C (second compound 3 µM, first compound 0.03 µM) was 73.4%, the viability, T/C (second compound 3 µM, first compound 0.0949 µM) was 68.6% and the viability, T/C (second compound 3 µM, first compound 0.3 µM) was 53.6%. It also gave a viability, T/C (second compound 3 µM, first compound 0.949 µM) of 13.1%, a viability, T/C (second compound 3 µM, first compound 3 µM) of 4.67% and a viability, T/C (second compound 9.49 µM, first compound 0.00949 µM) of 43.3%. It also gave a viability, T/C (second compound 9.49 µM, first compound 0.03 µM) of 44.8%, a viability, T/C (second compound 9.49 µM, first compound 0.0949 µM) of 36.6% and a viability, T/C (second compound 9.49 µM, first compound 0.3 µM) of 24.6%. The viability, T/C (second compound 9.49 µM, first compound 0.949 µM) was 7.73%, the viability, T/C (second compound 9.49 µM, first compound 3 µM) was 1.63% and the viability, T/C (second compound 30 µM, first compound 0.00949 µM) was 20.6%. The viability, T/C (second compound 30 µM, first compound 0.03 µM) was 17.8%, the viability, T/C (second compound 30 µM, first compound 0.0949 µM) was 15.7% and the viability, T/C (second compound 30 µM, first compound 0.3 µM) was 10.4%. For the same compound, the viability, T/C (second compound 30 µM, first compound 0.949 µM) was 2.66% and the viability, T/C (second compound 30 µM, first compound 3 µM) was 0.54%.
`CCCS(=O)(=O)Nc1ccc(F)c(C(=O)c2c[nH]c3ncc(-c4ccc(Cl)cc4)cc23)c1F` was tested, and the viability, T/C (compound 0.316 µM) was 115% and 97.9%, the viability, T/C (compound 1 µM) was 107% and 92.3% and the viability, T/C (compound 3.16 µM) was 106% and 99.3%. The viability, T/C (compound 10 µM) was 12.5% and 20.2%, the viability, T/C (compound 31.6 µM) was 103% and 16.7% and the viability, T/C (compound 100 µM) was 83.9% and 100%.
For `Cc1nc(NC(=O)N2CCCC2C(N)=O)sc1-c1ccnc(C(C)(C)C(F)(F)F)c1` (stereo not drawn) + CC(C)NCC(C(=O)N1CCN(c2ncnc3c2C(C)CC3O)CC1)c1ccc(Cl)cc1, the IC50 [1] was > 10000 nM, the IC50 [2] was 7110 nM and the IC50 [3] was 1460 nM. The IC50 [4] was < 31.6 nM, the IC50 [5] was < 31.6 nM and the viability, T/C (second compound 0.3 µM, first compound 0.0316 µM) was 95.5%. For the same compound, the viability, T/C (second compound 0.3 µM, first compound 0.1 µM) was 99%, the viability, T/C (second compound 0.3 µM, first compound 0.316 µM) was 91% and the viability, T/C (second compound 0.3 µM, first compound 1 µM) was 71.5%. For the same compound, the viability, T/C (second compound 0.3 µM, first compound 3.16 µM) was 67.3%, the viability, T/C (second compound 0.3 µM, first compound 10 µM) was 51.4% and the viability, T/C (second compound 0.949 µM, first compound 0.0316 µM) was 85.8%. For the same compound, the viability, T/C (second compound 0.949 µM, first compound 0.1 µM) was 83.9%, the viability, T/C (second compound 0.949 µM, first compound 0.316 µM) was 79% and the viability, T/C (second compound 0.949 µM, first compound 1 µM) was 70.3%. For the same compound, the viability, T/C (second compound 0.949 µM, first compound 3.16 µM) was 62%, the viability, T/C (second compound 0.949 µM, first compound 10 µM) was 44.9% and the viability, T/C (second compound 3 µM, first compound 0.0316 µM) was 69.7%. The viability, T/C (second compound 3 µM, first compound 0.1 µM) was 67.9%, the viability, T/C (second compound 3 µM, first compound 0.316 µM) was 61.5% and the viability, T/C (second compound 3 µM, first compound 1 µM) was 53.8%. It also gave a viability, T/C (second compound 3 µM, first compound 3.16 µM) of 42.5%, a viability, T/C (second compound 3 µM, first compound 10 µM) of 30.6% and a viability, T/C (second compound 9.49 µM, first compound 0.0316 µM) of 39.5%. It also gave a viability, T/C (second compound 9.49 µM, first compound 0.1 µM) of 35.6%, a viability, T/C (second compound 9.49 µM, first compound 0.316 µM) of 36.6% and a viability, T/C (second compound 9.49 µM, first compound 1 µM) of 26.8%. It also gave a viability, T/C (second compound 9.49 µM, first compound 3.16 µM) of 17.2%, a viability, T/C (second compound 9.49 µM, first compound 10 µM) of 7.68% and a viability, T/C (second compound 30 µM, first compound 0.0316 µM) of 18%. It also gave a viability, T/C (second compound 30 µM, first compound 0.1 µM) of 18%, a viability, T/C (second compound 30 µM, first compound 0.316 µM) of 11.3% and a viability, T/C (second compound 30 µM, first compound 1 µM) of 8.89%. For the same compound, the viability, T/C (second compound 30 µM, first compound 3.16 µM) was 3.83% and the viability, T/C (second compound 30 µM, first compound 10 µM) was 0.52%.
In the case of `CC(C)CC(NC(=O)CNC(=O)c1cc(Cl)ccc1Cl)B1OC(=O)CC(CC(=O)O)(C(=O)O)O1` (stereo not drawn), the viability, T/C (compound 0.000316 µM) is reported as 104% and 94.9%, the viability, T/C (compound 0.001 µM) is reported as 101% and 104% and the viability, T/C (compound 0.00316 µM) is reported as 99.5% and 101%. The viability, T/C (compound 0.01 µM) was 95.7% and 90.9%, the viability, T/C (compound 0.0316 µM) was 18.1% and 10.3% and the viability, T/C (compound 0.1 µM) was 0.44% and 0.46%. For the same compound, the IC50 (curve of compound) was 19.7 nM and 17.9 nM.
